Reference: patent publication US8143403B2 (Bristol-Myers Squibb Company, priority 2008, dated 2012)
Values joined by “and” are separate entries in the source; they are usually repeats but may differ in a detail not shown here. Equal values may be shown once.

Assays:
[1] = molecular target: T1, CGRP receptors (SK-N-MC cell membranes) (Homo sapiens, UniProt O60894+Q16602); test: Saturation/Scatchard analysis of [125I]-CGRP binding to SK-N-MC cell membranes
T1 construct: Crude membranes were prepared from SK-N-MC cells expressing CGRP receptors; endogenous in cells; host or cells: SK-N-MC cells (crude membranes)
T1 sequence (Q16602 23-461): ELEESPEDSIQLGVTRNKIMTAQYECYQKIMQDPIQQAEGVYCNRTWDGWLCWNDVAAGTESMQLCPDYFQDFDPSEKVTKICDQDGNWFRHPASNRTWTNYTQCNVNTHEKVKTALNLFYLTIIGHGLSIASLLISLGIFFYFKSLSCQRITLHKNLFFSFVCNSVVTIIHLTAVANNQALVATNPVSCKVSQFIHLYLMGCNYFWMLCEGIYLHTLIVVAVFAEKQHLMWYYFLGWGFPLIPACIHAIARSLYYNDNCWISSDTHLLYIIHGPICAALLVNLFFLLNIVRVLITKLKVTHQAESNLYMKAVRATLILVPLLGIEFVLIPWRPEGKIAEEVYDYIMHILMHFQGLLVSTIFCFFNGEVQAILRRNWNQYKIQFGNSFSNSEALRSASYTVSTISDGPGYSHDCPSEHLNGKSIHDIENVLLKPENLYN
T1 sequence (O60894 27-148): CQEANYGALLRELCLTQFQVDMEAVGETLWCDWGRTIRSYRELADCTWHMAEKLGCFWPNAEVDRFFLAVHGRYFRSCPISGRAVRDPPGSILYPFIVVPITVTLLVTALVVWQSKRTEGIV
Procedure: FIG. 1. [^125I]-CGRP Saturation/Scatchard Analysis. [^125I]-CGRP saturation using SK-N-MC membranes in the absence (filled squares) and presence (all others) of CGRP antagonist example 20. Inset depicts a Scatchard plot of same data.
Saturation/Scatchard Analysis. The nature of the interaction between the human CGRP peptide and example 20 was studied in detail using saturation binding experiments. The binding of increasing concentrations of [^125I]-CGRP to SK-N-MC cell membranes was measured in the absence (control condition) and in the presence of 300 pM and 600 pM example 20. Saturation data were analyzed using a one site binding equation to estimate apparent equilibrium dissociation constant (Kd) and the maximum number of binding sites (Bmax) (Prizm v4.0, Graphpad). The impact of the addition of example 20 to the binding parameters (Kd, Bmax) of [^125I]-CGRP binding was measured and compared. […] Example 20 was evaluated in 3 separate experiments (for representative dataset, see FIG. 1. [^125I]-CGRP Saturation/Scatchard Analysis). Functional Antagonism/Schild analysis. Agonist stimulation of CGRP receptor complex leads to cyclic AMP (adenosine 3′5′-cyclic monophosphate) production via Gs-dependent activation of an adenylate cyclase (Juaneda C et al., TiPS, 2000; 21:432-438). Consequently, CGRP receptor antagonists inhibit CGRP-induced cyclic AMP formation in SK-N-MC cells which natively express the CGRP receptor complex (Doods H et al., Br J Pharmacol, 2000; 129(3):420-423). Example 20 was evaluated for its ability to block CGRP induced cAMP formation using a commercially available cAMP HTRF kit (catalog number 62AM2PEC, CisBio International). […] The cells were lysed with lysis reagent and cAMP concentrations were determined by HTRF according to the manufacturer's instructions. A standard curve using known quantities of cAMP was evaluated in parallel to allow conversion of HTRF ratio to nM cAMP. The resulting curves were then evaluated using a Gaddum/Schild equation individually and with global fitting (Prizm v4.0, Graphpad). […]

[2] = molecular target: CGRP receptor complex (Homo sapiens, UniProt O60894+Q16602); test: Functional antagonism/Schild analysis, CGRP-stimulated cAMP production (HTRF) in SK-N-MC cells; assay type: cell-based
CGRP receptor complex, sequence (Q16602 23-461): as the sequence (Q16602 23-461) above
CGRP receptor complex, sequence (O60894 27-148): as the sequence (O60894 27-148) above
Procedure: Saturation/Scatchard Analysis. […] Saturation data were analyzed using a one site binding equation to estimate apparent equilibrium dissociation constant (Kd) and the maximum number of binding sites (Bmax) (Prizm v4.0, Graphpad). […] Functional Antagonism/Schild analysis. Agonist stimulation of CGRP receptor complex leads to cyclic AMP (adenosine 3′5′-cyclic monophosphate) production via Gs-dependent activation of an adenylate cyclase (Juaneda C et al., TiPS, 2000; 21:432-438). Consequently, CGRP receptor antagonists inhibit CGRP-induced cyclic AMP formation in SK-N-MC cells which natively express the CGRP receptor complex (Doods H et al., Br J Pharmacol, 2000; 129(3):420-423). […] A Schild analysis format was used, which allowed investigation of the mechanism of antagonism. […] Various concentrations of CGRP were added and the cells were allowed to incubate 30 min at room temperature. The cells were lysed with lysis reagent and cAMP concentrations were determined by HTRF according to the manufacturer's instructions. A standard curve using known quantities of cAMP was evaluated in parallel to allow conversion of HTRF ratio to nM cAMP. The resulting curves were then evaluated using a Gaddum/Schild equation individually and with global fitting (Prizm v4.0, Graphpad). […] To obtain a global fit the following parameters were shared (top, bottom, logEC50, Hill slope and pA2) and all curves were fit simultaneously. […] Non-Terminal Method for Assessing In Vivo Efficacy of Small Molecule CGRP-Receptor Antagonists in Mammals Overview. […] Non-human primates (e.g., marmosets) are the only animals known to have human-like CGRP receptor pharmacology conferred by the presence of the specific amino acid residue (Trp74) in their RAMP1 sequence which is responsible for the phenotype of the human receptor (Mallee et al. J Biol Chem 2002 277:14294). […]

O=C(O[C@@H]1CC[C@@H](c2cccc(F)c2F)Cc2cccnc21)N1CCC(n2c(=O)[nH]c3ncccc32)CC1 [Example 20]
effect on maximum binding sites of [125I]-CGRP binding (Bmax) ([1]; 300 pM and 600 pM example 20 vs control): without significantly changing the maximum binding sites | effect on Kd of [125I]-CGRP binding ([1]; 300 pM and 600 pM example 20 vs control, 3 experiments): dose-dependently increased the Kd | mechanism of inhibition of [125I]-CGRP binding ([1]; saturation binding): competitive mechanism of inhibition | effect on maximal CGRP response (cAMP production) ([2]; 15 min pre-incubation, 0.3 to 24 nM antagonist): without altering the maximal response | Kb ([2]; global Gaddum/Schild fit, Schild slope of 1, two datasets): 0.247 ± 0.04 nM | Schild slope ([2]; global fits with unconstrained Schild slope, two separate experiments): 1.17 and 0.8
